Measurements: patent publication US12070472B2, “Treatment of drug resistant proliferative diseases with telomerase mediated telomere altering compounds” (The Board of Regents of the University of Texas System, priority 2016, dated 2024)

Columns and labels:
BJ-hTERT cells = assay: Telomere dysfunction induced foci (TIF) assay in BJ-hTERT cells; format: cell-based, human; details: 10 μM, after 48 hours
Protocol: TIFs were quantified using Imaris software.
Normal BJ cells and […] BJ-hTERT cells were seeded in chamber slides. Following cell attachment, 6-thio-dG (10 μM) and 6-thio-G (10 μM) were added to fresh medium of each cell type. […] A control was used for each cell type as well, where DMSO was added to fresh medium of each cell type. […] These include almost all human cancer cells and certain human diseases involving acute and chronic inflammation.

HCT116 = assay: GI 50 determination, HCT116; format: cell-based; details: Homo sapiens, HCT-116
Protocol: (§1) Cells of each type listed in Table 2 were seeded in chamber slides.

A549 = assay: GI 50 determination, A549; format: cell-based; details: Homo sapiens
Protocol: as §1

H2882 = assay: GI 50 determination, H2882; format: cell-based; details: Homo sapiens, NCI-H2882
Protocol: as §1

HCC2429 = assay: GI 50 determination, HCC2429; format: cell-based; details: Homo sapiens
Protocol: as §1

HCC827 = assay: GI 50 determination, HCC827; format: cell-based; details: Homo sapiens
Protocol: as §1

HCC4017 = assay: GI 50 determination, HCC4017; format: cell-based; details: Homo sapiens
Protocol: as §1

HCC515 = assay: GI 50 determination, HCC515; format: cell-based; details: Homo sapiens
Protocol: as §1

H2009 = assay: GI 50 determination, H2009; format: cell-based; details: Homo sapiens, NCI-H2009
Protocol: as §1

HCT116 cells [1] = details: 3 μM twice during one week
Protocol: Cancer HCT116 and normal BJ fibroblast cells were treated with 6-thio-dG (3 μM) and 6-thio-G (3 μM) twice during one week. Following one week of the treatment, cell morphology was monitored, and then the cells were collected and counted.

BJ fibroblast cells = assay: Cell morphology and cell count after one week, BJ fibroblasts; format: cell-based, human; details: normal BJ fibroblasts; 3 μM twice during one week
HCT116 cells [2] = tested on: HCT116 cells
Protocol: For long-term cellular experiments, HCT116 (1,000 cells/cm^2) and BJ (10,000 cells/cm^2) cells were fed with 6-thio-dG (1, 3, 10 μM) containing medium every three days. The cells were counted and replated every week for 10-16 weeks. Additionally, HCT116 cells (1,000 cells/cm^2) were fed with 6-thio-G (1, 3, 10 μM) every three days and each week cells were counted, collected for TRF (Telomere Restriction Fragment) analysis and replated. HCT116 cells, following treatment with 10 μM 6-thio-dG for 12 weeks, were then treated with a combination of 10 μM 6-thio-dG and 3 μM GRN163L for 2-4 weeks.

[3] = tested on: A549 human lung cancer cells; assay: Tumor growth in xenograft animal model with A549 cells; format: in vivo, mice; details: 2.5 mg/kg every day
Protocol: Doses of 2.5 mg/kg of 6-thio-dG and 2.5 mg/kg of 6-thio-G were injected every day into mice after tumor implantation and providing time for tumor initiation. DMSO injections were used for the control. The volume of the tumor was measured.

[4] = mouse, in vivo, 5 mg/kg
Protocol: Six WT mice were treated with 1.67 mg of 6-thio-dG/kg of body weight daily. Six WT mice were treated with 1.67 mg of 6-thio-G/kg of body weight daily. Six WT mice were treated with 5 mg of 6-thio-dG/kg of body weight daily. Six WT mice were treated with 5 mg of 6-thio-G/kg of body weight daily. The mice were given the appropriate dosage and weighed daily for 25 days.

[5] = tested on: HCT116 colon cancer cell line; assay: CellTitreGlo survival, 7 days, HCT116; format: cell-based; details: Homo sapiens, HCT-116, 168 h
Protocol: (§2) Four different cell lines were treated with nine different doses of 6-thio-dG for 7 days. HCT116 colon cancer cell line (FIG. 9A), HCEC1 normal colonic cell line (FIG. 9C), A549 non-small cell lung cancer cell line (FIG. 9B), and BJ normal fibroblast cell line (FIG. 9D) were each treated. Survival fraction was measured by CellTitreGlo luminescent cell viability assay (Promega).

[6] = tested on: A549 non-small cell lung cancer cell line; assay: CellTitreGlo survival, 7 days, A549; format: cell-based; details: Homo sapiens, 168 h
Protocol: as §2

H1993 = assay: NSCLC panel sensitivity to 6-thio-dG, H1993; format: cell-based, human
Protocol: (§3) A panel of NSCLC cell lines was tested for sensitivity to 6-thio-dG by performing a cell count after 1 week treatment. Briefly, cells were treated with 3 μM 6-thio-dG every three days for 1 week. Viable cells were counted at the end of treatment. Each 6-thiodG treated cell line was normalized to its DMSO treated control.
(§4) Two isogenic pairs of NSCLC cell lines were studied for sensitization to 6-thio-dG treatment.

H2086 = assay: NSCLC panel sensitivity to 6-thio-dG, H2086; format: cell-based, human; details: 3 μM every three days for 1 week, normalized to DMSO control
Protocol: as §3, with “control. The results of the cell count are depicted in FIG. 12, with the various cell lines arranged in descending resistance to 6-thio-dG from left to right. […] The IC50 values for the whole panel of tested cells are depicted in FIG. 13. The IC50 values for tested cells are depicted as a column scatter graph in FIG. 14.” for “control.”

H1819 [7] = assay: NSCLC panel sensitivity to 6-thio-dG, H1819; format: cell-based, human
Protocol: as §3, §4

H2343 = assay: NSCLC panel sensitivity to 6-thio-dG, H2343; format: cell-based; details: Homo sapiens
Protocol: as §3, with “control. The results of the cell count are depicted in FIG. 12, with the various cell lines arranged in descending resistance to 6-thio-dG from left to right. […] The IC50 values for the whole panel of tested cells are depicted in FIG. 13. The IC50 values for tested cells are depicted as a column scatter graph in FIG. 14.” for “control.”

[8] = tested on: paclitaxel/carboplatin resistant H1355; assay: 6-thio-dG on paclitaxel/carboplatin resistant H1355, cell count; format: cell-based, human; details: 1, 3, 10 μM every three days for one week
Protocol: A cell count was performed to measure cell growth/death.

[9] = tested on: HCC4017 paclitaxel/carboplatin resistant cell line; assay: 6-thio-dG on HCC4017 paclitaxel/carboplatin resistant line; format: cell-based, human; details: 1, 3, 10 μM
Protocol: (§5) The resulting resistant lines and their parents were tested for the effect of 6-thio-dG at 1, 3, and 10 μM concentrations.

H1819 [10] = assay: 6-thio-dG on H1819 parental and paclitaxel/carboplatin resistant lines; format: cell-based, human; details: 1, 3, 10 μM
Protocol: as §5

Compound: Nc1nc2c(ncn2[C@H]2C[C@H](O)[C@@H](CO)O2)c(=S)[nH]1 [6-thio-dG, 6-thio-2′-deoxyguanosine]
- >4 TIFs per nucleus background subtracted (BJ-hTERT cells): 14
- GI50 (HCT116): 1 µM
- GI50 (A549): 2.1 µM
- GI50 (H2882): 0.4 µM
- GI50 (HCC2429): 0.6 µM
- GI50 (HCC827): 0.8 µM
- GI50 (HCC4017): 0.9 µM
- GI50 (HCC515): 2.4 µM
- GI50 (H2009): 2.6 µM
- cell death / cell count (HCT116 cells [1]): death of the vast majority of HCT116 cells
- morphology and cell counts (BJ fibroblast cells): only slightly affected
- telomere shortening (TRF) (HCT116 cells [2]; 1 μM or 10 μM every 3 days, 12 weeks): dramatic telomere shortening
- telomere length on continued treatment (TRF) (HCT116 cells [2]; 10 μM 6-thio-dG for 12 weeks, continued to 16 weeks): exhibited stablized telomeres
- acquisition of resistance (cell growth) (HCT116 cells [2]; 1, 3, 10 μM, weekly over 10 weeks): begin to acquire resistance to the treatment by the third week
- telomere length after drug removal (TRF) (HCT116 cells [2]; 12 weeks 6-thio-dG, then normal medium without drug 2-4 weeks): remained about the same as after 12 week of 6-thio-dG treatment
- histology of residual tumors [3]: mostly fibrotic and often associated with apoptotic and inflammatory cells
- rate of tumor growth (tumor volume) ([3]; compared to control and 6-thio-G): rate of tumor growth was less
- weight loss [4]: only modest weight loss
- IC50 [5]: 1.1 µM
- IC50 [6]: 2.4 µM
- survival rate (H1993; H1993, 3 μM every three days for 1 week, normalized to DMSO control): greater than 50%
- IC50 (H1993; Homo sapiens, NCI-H1993): > 100 µM
- survival rate (H2086): greater than 50%
- survival rate (H1819 [7]; H1819, 3 μM every three days for 1 week, normalized to DMSO control): greater than 50%
- IC50 (H1819 [7]; Homo sapiens, NCI-H1819): > 100 µM
- IC50 (H2343): 3 to 7 µM
- sensitivity (cell count) [8]: sensitive to all three concentrations
- sensitivity [9]: still sensitive to 6-thio-dG
- sensitivity (H1819 [10]): resistant to 6-thio-dG
